Measured values reported in PMC4731763, “Naturally occurring proteinaceous nanoparticles in Coptidis Rhizoma extract act as concentration-dependent carriers that facilitate berberine absorption” (Scientific Reports, 2016).
Read-outs that look alike come from different tables or passages of the source.

Tests used:
P-gp = details: cited from earlier work
[1] = Pharmacokinetics in mice: plasma berberine exposure after oral administration; assay type: in vivo; details: both sexes, Kun-Ming, mouse
Experimental: A Shimadzu Prominence UFLCXR series HPLC (Shimadzu, Japan) and a Thermo Scientific TSQ Quantum Ultra mass spectrometer (Thermo Scientific, Waltham, MA, USA) equipped with an electrospray ionization (ESI) source were used. The samples were precipitated with 3 volumes of acetonitrile. Carbamazepine was used as the internal standard. After centrifugation (24,000 g, 6 min, 4 °C), the supernatant was mixed with an equal volume of water and 10-μL samples were injected into the LC-MS/MS system. The samples were eluted through a Hypersil Gold (C18) analytical column (5 μm, 100 × 2.1 mm) with a gradient of the aqueous phase (0.08% v/v formic acid and 2 mM ammonium acetate) and the acetonitrile phase (0 min, 85:15; 7 min, 32:68; 7.01 min, 85:15; 10 min, 85:15) at a flow rate of 0.3 mL/min. The ESI source was set to positive ion mode. Data acquisition was performed in the multiple reaction monitoring mode of the selective mass transition for each compound. The transitions from the precursor ions to the protonated fragment product ions were monitored: m/z 336.15 → m/z 322.28 for berberine and m/z 237.00 → m/z 194.31 for carbamazepine. The linear dynamic range for berberine in the tested biological samples was 0.5 to 500 ng/mL. […] The accuracy, precision, recovery, and stability tests all met the requirements of quantitative determination in biological samples. […]

[2] = design: method as in PMID 20138204; details: cited from earlier work
mice = details: mouse, in vivo
Experimental: The mice (n = 20 mice per group, 10 males and 10 females) were orally administered the test materials and the reactions of the mice were recorded for 7 days. Using this method, the acute oral toxicities of the following materials were tested at the dose volume of 0.2 mL/10 g body weight (dissolved in water) and compared: (1) the Coptidis Rhizoma extract (1 or 3 g/kg); (2) the supernatant of the Coptidis Rhizoma extract (3 g/kg) after centrifugation (300,000 g, 30 min, 4 °C); (3) pure berberine (206 or 618 mg/kg, equal to the dose of berberine in the 1 and 3 g/kg extracts, respectively); (4) alkaloid extract of Coptidis Rhizoma (1259 mg/kg, equal to the dose of berberine in the 3 g/kg extract).

| Compound | Effect on P-gp (P-gp) | AUC(0-t) ([1]; 206 mg/kg pure berberine, read-out: Plasma berberine AUC0–24 h) | AUC(0-t) ([1]; 618 mg/kg pure berberine, read-out: Plasma berberine AUC0–4 h) | Toxicity in vivo after oral administration [2] | P-gp substrate status (P-gp) | Acute oral toxicity (survival of mice) (mice; 206 mg/kg) | Acute oral toxicity (reaction or death of mice) (mice; 618 mg/kg) |
| --- | --- | --- | --- | --- | --- | --- | --- |
| COc1cc([C@H]2Oc3cc(-c4cc(=O)c5c(O)cc(O)cc5o4)cc(OC)c3O[C@@H]2CO)ccc1O (racemic) [5′-methoxyhydnocarpin] | inhibitory effects on P-gp |  |  |  |  |  |  |
| COc1ccc2cc3[n+](cc2c1OC)CCc1cc2c(cc1-3)OCO2 [pure berberine, berberine] |  | 722 ng·h/mL | 22.1 ng·h/mL | weak toxicity | P-gp substrate | survived | did not show toxic reactions |
